Measurements taken from patent US8993542B2, “Methods of treating viral infections” (priority 2008, dated 2015).

Tested on: HIV-1IIIB
Experiment: Two-drug combination antiviral assay in CEM cells (CPE), MacSynergy II
Assay type: cell-based
Details: for Antagonism Volume, Result 1 / Antagonism Volume, Result 2 / Antagonism Volume, Result 3 / Mean Antagonism Volume (n = 3) / Mean Synergy Volume (n = 3) / Synergy Volume, Result 1 / Synergy Volume, Result 2 / Synergy Volume, Result 3: in combination with CMX157, CEM-SS cells, 95% confidence; for Interpretation of Antiviral Results (MacSynergy): two-drug combination (with CMX157; control d4T/RBV), CEM-SS cells

Compound: CC(C)c1nc(CN(C)C(=O)N[C@H](C(=O)N[C@@H](Cc2ccccc2)C[C@H](O)[C@H](Cc2ccccc2)NC(=O)OCc2cncs2)C(C)C)cs1 [Ritonavir (RTV), ritonavir]
- Antagonism Volume, Result 1: 0 nM^2 %, μM^2 % or nMμM %
- Antagonism Volume, Result 2: 0 nM^2 %, μM^2 % or nMμM %
- Antagonism Volume, Result 3: −2.61 nM^2 %, μM^2 % or nMμM %
- Mean Antagonism Volume (n = 3): 0 nM^2 %, μM^2 % or nMμM %
- Mean Synergy Volume (n = 3): 66.4 nM^2 %, μM^2 % or nMμM %
- Synergy Volume, Result 1: 47.5 nM^2 %, μM^2 % or nMμM %
- Synergy Volume, Result 2: 38.0 nM^2 %, μM^2 % or nMμM %
- Synergy Volume, Result 3: 116 nM^2 %, μM^2 % or nMμM %
- Interpretation of Antiviral Results (MacSynergy): slightly synergistic

Compound: Cc1cccc(C)c1OCC(=O)N[C@@H](Cc1ccccc1)[C@@H](O)C[C@H](Cc1ccccc1)NC(=O)[C@H](C(C)C)N1CCCNC1=O [Lopinavir (LPV), lopinavir]
- Antagonism Volume, Result 1: −0.31 nM^2 %, μM^2 % or nMμM %
- Antagonism Volume, Result 2: 0 nM^2 %, μM^2 % or nMμM %
- Antagonism Volume, Result 3: −0.12 nM^2 %, μM^2 % or nMμM %
- Mean Antagonism Volume (n = 3): −0.14 nM^2 %, μM^2 % or nMμM %
- Mean Synergy Volume (n = 3): 55.6 nM^2 %, μM^2 % or nMμM %
- Synergy Volume, Result 1: 78.8 nM^2 %, μM^2 % or nMμM %
- Synergy Volume, Result 2: 28.3 nM^2 %, μM^2 % or nMμM %
- Synergy Volume, Result 3: 59.8 nM^2 %, μM^2 % or nMμM %
- Interpretation of Antiviral Results (MacSynergy): slightly synergistic

Compound: Cc1c(O)cccc1C(=O)N[C@@H](CSc1ccccc1)[C@H](O)CN1C[C@H]2CCCC[C@H]2C[C@H]1C(=O)NC(C)(C)C [Nelfinavir (NFV), nelfinavir]
- Antagonism Volume, Result 1: 0 nM^2 %, μM^2 % or nMμM %
- Antagonism Volume, Result 2: 0 nM^2 %, μM^2 % or nMμM %
- Antagonism Volume, Result 3: 0 nM^2 %, μM^2 % or nMμM %
- Mean Antagonism Volume (n = 3): 0 nM^2 %, μM^2 % or nMμM %
- Mean Synergy Volume (n = 3): 80.9 nM^2 %, μM^2 % or nMμM %
- Synergy Volume, Result 1: 32.1 nM^2 %, μM^2 % or nMμM %
- Synergy Volume, Result 2: 85.1 nM^2 %, μM^2 % or nMμM %
- Synergy Volume, Result 3: 125 nM^2 %, μM^2 % or nMμM %
- Interpretation of Antiviral Results (MacSynergy): slightly synergistic

Compound: CC(C)(C)NC(=O)[C@@H]1CN(Cc2cccnc2)CCN1C[C@@H](O)C[C@@H](Cc1ccccc1)C(=O)N[C@H]1c2ccccc2C[C@H]1O [Indinavir (IDV), indinavir]
- Antagonism Volume, Result 1: −0.56 nM^2 %, μM^2 % or nMμM %
- Antagonism Volume, Result 2: 0 nM^2 %, μM^2 % or nMμM %
- Antagonism Volume, Result 3: 0 nM^2 %, μM^2 % or nMμM %
- Mean Antagonism Volume (n = 3): −0.19 nM^2 %, μM^2 % or nMμM %
- Mean Synergy Volume (n = 3): 53.0 nM^2 %, μM^2 % or nMμM %
- Synergy Volume, Result 1: 78.7 nM^2 %, μM^2 % or nMμM %
- Synergy Volume, Result 2: 62.7 nM^2 %, μM^2 % or nMμM %
- Synergy Volume, Result 3: 17.6 nM^2 %, μM^2 % or nMμM %
- Interpretation of Antiviral Results (MacSynergy): slightly synergistic

Compound: enfuvirtide
- Antagonism Volume, Result 1: 0/0 nM^2 %, μM^2 % or nMμM %
- Antagonism Volume, Result 2: 0 nM^2 %, μM^2 % or nMμM %
- Antagonism Volume, Result 3: 0/0 nM^2 %, μM^2 % or nMμM %
- Mean Antagonism Volume (n = 3): 0 nM^2 %, μM^2 % or nMμM %
- Mean Synergy Volume (n = 3): 1.02 nM^2 %, μM^2 % or nMμM %
- Synergy Volume, Result 1: 0/0 nM^2 %, μM^2 % or nMμM %
- Synergy Volume, Result 2: 3.05 nM^2 %, μM^2 % or nMμM %
- Synergy Volume, Result 3: 0/0 nM^2 %, μM^2 % or nMμM %
